Data from US9510598B2, “Nitrogen-containing heterocyclic compounds for plant disease control” (BAYER CROPSCIENCE AG, priority 2012, dated 2016).
Where “and” joins values, the source holds several entries; their conditions need not be identical. Identical values can stand only once. Like-named read-outs stand apart in the source and are kept apart here.

Legend:
[1] = tested on: Uromyces appendiculatus; assay: In vivo preventive test on Uromyces appendiculatus (bean rust); conditions: 500 ppm; bean plants sprayed 24 hours before contamination; grading 10 days after contamination vs control plants
Procedure: Bean plants (“Saxa” variety), sown in starter cups on a 50/50 peat soil-pozzolana substrate and grown at 24° C., are treated at the 2-leaf stage (9 cm height) by spraying with the active ingredient prepared as described above. Plants, used as controls, are treated with the mixture of acetone/tween/DMSO/water not containing the active material. After 24 hours, the plants are contaminated by spraying the leaves with an aqueous suspension of Uromyces appendiculatus spores (150 000 spores per ml).

[2] = tested on: Septoria tritici; assay: In vivo preventive test on Septoria tritici (leaf spot on wheat); conditions: 500 ppm; wheat plants sprayed 24 hours before contamination; grading 21 to 28 days after contamination vs control plants
Procedure, shortened: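 Scipion wheat at 1-leaf stage sprayed with compound, controls receiving acetone/tween/DMSO/water vehicle; 24 h later leaves inoculated with Septoria tritici spores (500 000 spores per ml). Efficacy (%) graded versus control plants 21 to 28 days after contamination.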

[3] = tested on: Alternaria brassicae; assay: In vivo preventive test on Alternaria brassicae (leaf spot on radish); conditions: 500 ppm; radish plants sprayed 24 hours before contamination; grading 5 days after contamination vs control plants
Procedure, shortened: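 Radish plants ('Pernod Clair', grown at 17 °C) were spray-treated at the 2-leaf stage; controls received solvent mix only. After 24 h, leaves were sprayed with 50 000 spores/ml from 15-day-old cultures, and % efficacy was graded 5 days post-inoculation against controls.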

[4] = tested on: Puccinia recondita; assay: In vivo preventive test on Puccinia recondita (brown rust on wheat); conditions: 500 ppm; wheat plants sprayed 24 hours before contamination; grading 10 days after contamination vs control plants
Procedure, shortened: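 Wheat (Scipion) grown at 22° C./20° C. (12 h each), sprayed with active ingredient at 1-leaf stage (10 cm); controls sprayed with acetone/tween/DMSO/water lacking active. Leaves inoculated 24 hours later with Puccinia recondita spore suspension (100 000 spores per ml).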

[5] = type: physicochemical
[6] = tested on: Pyrenophora teres; assay: In vivo preventive test on Pyrenophora teres (net blotch on barley); conditions: 500 ppm; barley plants sprayed 24 hours before contamination; grading 12 days after contamination vs control plants
Procedure: Barley plants (“Plaisant” variety), sown in starter cups on a 50/50 peat soil-pozzolana substrate and grown at 22° C. (12 h)/20° C. (12 h), are treated at the 1-leaf stage (10 cm height) by spraying with the active ingredient prepared as described above. Plants, used as controls, are treated with the mixture of acetone/tween/DMSO/water not containing the active material. After 24 hours, the plants are contaminated by spraying the leaves with an aqueous suspension of Pyrenophora teres spores (12 000 spores per ml). The spores are collected from a 12-day-old culture. […] Grading (% of efficacy) is carried out 12 days after the contamination, in comparison with the control plants.

[7] = tested on: Sphaerotheca fuliginea; assay: In vivo preventive test on Sphaerotheca fuliginea (powdery mildew on cucurbits); conditions: 500 ppm; gherkin plants sprayed 24 hours before contamination; grading 12 days after contamination vs control plants
Procedure, shortened: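 Preventive spray of gherkin plants at Z11 cotyledon stage, grown at 24° C; inoculation 24 hours later with Sphaerotheca fuliginea spores (100 000 spores per ml). Efficacy graded 12 days post-inoculation as % versus solvent-treated control plants.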

[8] = tested on: Peronospora parasitica; assay: In vivo preventive test on Peronospora parasitica (crucifer downy mildew); conditions: 500 ppm; cabbage plants sprayed 24 hours before contamination; grading 5 days after contamination vs control plants
Procedure: Cabbage plants (Eminence variety) in starter cups, sown on a 50/50 peat soil-pozzolana substrate and grown at 18-20° C., are treated at the cotyledon stage by spraying with the aqueous suspension described above. Plants, used as controls, are treated with an aqueous solution not containing the active material. After 24 hours, the plants are contaminated by spraying them with an aqueous suspension of Peronospora parasitica spores (50.000 spores per ml). The spores are collected from infected plant. The contaminated cabbage plants are incubated for 5 days at 20° C., under a humid atmosphere. Grading is carried out 5 days after the contamination, in comparison with the control plants.

[9] = tested on: Botrytis cinerea; assay: In vivo preventive test on Botrytis cinerea (grey mould); conditions: 500 ppm; gherkin plants sprayed 24 hours before contamination; grading 4-5 days after contamination vs control plants
Procedure, shortened: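 Gherkin plants ("Vert petit de Paris") sprayed with compound at Z11 cotyledon stage, then inoculated 24 h later with B. cinerea spores (50 000/ml) in PDB/fructose/NH4NO3/KH2PO4 nutrient solution. Incubated at 17 °C, 80% RH; % efficacy versus solvent-treated controls graded 4–5 days after contamination.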

[10] = tested on: Phytophthora infestans; type: in vivo; conditions: 500 ppm; tomato plants sprayed 24 hours before contamination; grading 5 days after contamination vs control plants
[11] = method [a]: HPLC/LC-MS on reversed phase at pH 2.7, 0.1% formic acid in water / acetonitrile, gradient 10% to 95% acetonitrile
[12] = method [a]: HPLC/LC-MS on reversed phase at pH 2.7, 0.1% formic acid in water / acetonitrile, linear gradient 10% to 95% acetonitrile
[13] = HPLC on reversed phase columns, method [a]: pH 2.7, 0.1% formic acid in water / acetonitrile, linear gradient 10% to 95% acetonitrile

Row | Compound | % of efficacy (protection) [1] | % of efficacy (protection) [2] | % of efficacy (protection) [3] | % of efficacy (protection) [4] | log P [5, 11] | % of efficacy (protection) [6] | % of efficacy (protection) [7] | log P [5, 12] | Grading, protection [8] | % of efficacy (protection) [9] | % of efficacy (protection) [10] | log P [5, 13]
1 | CCn1cc(CNC(=O)C2(C)CC(c3ccc4ncc(C(F)(F)F)cc4c3)=NO2)c(C)n1 (racemic) [compound 383] | 99% | 100% | 83% | 94% | 2.45[a] | 86% |  |  |  |  |  | 
2 | CC(C)NC(=O)C1(C)CC(c2ccc3ncc(C(F)(F)F)cc3c2)=NO1 (racemic) [compound 384] | 79% | 100% | 83% | 89% | 2.90[a] | 86% |  |  |  |  |  | 
3 | CC(C)NC(=O)C1(C)CC(c2ccc3ncc(N)cc3c2)=NO1 (racemic) [compound 435] | 77% |  |  |  | 1.19[a] | 83% |  |  |  |  |  | 
4 | COC1(C(=O)NC(C)C)CC(c2ccc3ncc(I)cc3c2)=NO1 (racemic) [compound 436] | 100% | 100% |  | 94% | 2.75[a] | 92% | 100% |  |  |  |  | 
5 | C#Cc1cnc2ccc(C3=NOC(CC)(C(=O)NCCCOCC)C3)cc2c1 (racemic) [compound 440] |  |  |  |  | 2.73[a] | 75% | 89% |  |  |  |  | 
6 | CC(C)NC(=O)C1(C)CC(c2ccc3ncc(Br)cc3c2)=NO1 (stereo not shown) [compound 31] |  | 100% |  |  |  |  | 100% | 2.75^[a] | 90% | 93% |  | 
7 | CCn1cc(CNC(=O)C2(C)CC(c3ccc4ncc(Br)cc4c3)=NO2)c(C)n1 (stereo not shown) [compound 34] |  |  |  |  |  |  | 94% and 98% | 2.39^[a] | 98% | 100% | 99% | 
8 | CCn1cc(CNC(=O)C2(C(F)(F)F)CC(c3ccc4ncc(Br)cc4c3)=NO2)c(C)n1 (stereo not shown) [compound 35] |  | 97% |  |  |  |  |  | 3.02^[a] | 90% |  |  | 
9 | CCn1cc(CNC(=O)C2(C)CC(c3ccc4ncc(I)cc4c3)=NO2)c(C)n1 (stereo not shown) [compound 39] |  |  |  |  |  |  | 100% | 2.49^[a] | 100% | 100% | 100% | 
10 | CCOCCCNC(=O)C1(OC)CC(c2ccc3ncc(Br)cc3c2)=NO1 (stereo not shown) [compound 52] |  | 93% and 97% | 71% and 75% | 88% |  | 71% | 100% | 2.68^[a] |  | 100% |  | 
11 | CCOCCCNC(=O)C1(C(F)(F)F)CC(c2ccc3ncc(Br)cc3c2)=NO1 (stereo not shown) [compound 105] | 86% | 75% | 70% | 71% |  | 79% | 100% | 3.57^[a] |  |  |  | 
12 | CC1(C)OCC(CNC(=O)C2(C)CC(c3ccc4ncc(Br)cc4c3)=NO2)O1 (stereo not shown) [compound 129] | 100% | 100% |  |  |  | 88% | 80% | 2.64^[a] |  |  | 85% | 
13 | C#Cc1cnc2ccc(C3=NOC(C)(C(=O)NCc4ccccc4)C3)cc2c1 (stereo not shown) [compound 169] |  | 100% |  |  |  | 79% |  | 2.86^[a] |  | 100% |  | 
14 | C#Cc1cnc2ccc(C3=NOC(C)(C(=O)NCc4ccc(Cl)cc4Cl)C3)cc2c1 (stereo not shown) [compound 198] |  | 86% | 98% |  |  | 86% |  | 3.73^[a] |  | 95% |  | 
15 | C#Cc1cnc2ccc(C3=NOC(C)(C(=O)NC(C)c4ccccn4)C3)cc2c1 (stereo not shown) [compound 206] |  | 100% |  |  |  | 71% | 94% | 1.9^[a] |  |  | 93% | 
16 | C#Cc1cnc2ccc(C3=NOC(C)(C(=O)NCc4ccc5c(c4)CCO5)C3)cc2c1 (stereo not shown) [compound 219] |  |  | 75% |  |  | 71% |  | 2.78^[a] |  | 99% |  | 
17 | Cc1cnc2ccc(C3=NOC(C)(C(=O)NC(C)C)C3)cc2c1 (stereo not shown) [compound 260] |  | 98% |  |  |  | 75% |  |  |  | 75% | 90% | 1.63^[a]
18 | C#CCONC(=O)C1(C)CC(c2ccc3ncc(Br)cc3c2)=NO1 (stereo not shown) [compound 306] | 100% | 78% | 71% |  |  | 75% |  |  |  |  |  | 2.22[a]
19 | C#Cc1cnc2ccc(C3=NOC(OC)(C(=O)NC(C)C)C3)cc2c1 (stereo not shown) [compound 406] |  | 100% |  |  | 2.35[a] | 83% | 100% |  |  |  |  | 
20 | C=C(C)C1(C(=O)NCC2COC(C)(C)O2)CC(c2ccc3ncc(Br)cc3c2)=NO1 (stereo not shown) [compound 520] |  | 79% |  |  |  | 88% |  |  |  |  |  | 3.29[a]
